This passage reports IC50 results from patent US20040024024A1, “Aromatic sulfone hydroxamates and their use as protease inhibitors” (priority 2001, published 2004).

What all share (experiment): In vitro MMP inhibition, IC50 determination (fluorogenic substrate I)
Common to all, as to format: biochemical
Holding throughout (details): value outside parenthesis

In one assay the target is T1, Human recombinant MMP-1 (Homo sapiens, UniProt P03956).
T1 construct: made in house; host or cells: MMP-1-transfected HT-1080 cells (spent media)
T1 sequence (P03956 100-469): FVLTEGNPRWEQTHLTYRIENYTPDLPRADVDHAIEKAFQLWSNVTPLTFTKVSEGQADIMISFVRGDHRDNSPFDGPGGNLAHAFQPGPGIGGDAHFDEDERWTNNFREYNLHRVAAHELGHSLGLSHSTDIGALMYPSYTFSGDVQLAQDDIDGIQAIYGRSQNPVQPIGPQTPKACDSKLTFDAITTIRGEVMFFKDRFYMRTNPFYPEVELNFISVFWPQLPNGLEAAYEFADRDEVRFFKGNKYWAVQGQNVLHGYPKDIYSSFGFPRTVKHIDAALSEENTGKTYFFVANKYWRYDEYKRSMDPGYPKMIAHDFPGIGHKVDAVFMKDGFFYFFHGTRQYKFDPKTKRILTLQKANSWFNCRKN
Put shortly:
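Inhibitor dilutions were made in 100 mM Tris-HCl/100 mM NaCl/10 mM CaCl2 buffer, pH 7.5, and incubated at room temperature with activated proenzyme (from transfected HT-1080 media; APMA or trypsin) and 4 μM quenched methoxycoumarin peptide substrate. Loss of 415 nm fluorescence (328 nm excitation) against concentration gave IC50.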

A further assay deals with T2, Human recombinant MMP-2 (Homo sapiens, UniProt P08253).
T2 construct: made in house; host or cells: MMP-2-transfected p2AHT2 cells
T2 sequence (P08253 110-660): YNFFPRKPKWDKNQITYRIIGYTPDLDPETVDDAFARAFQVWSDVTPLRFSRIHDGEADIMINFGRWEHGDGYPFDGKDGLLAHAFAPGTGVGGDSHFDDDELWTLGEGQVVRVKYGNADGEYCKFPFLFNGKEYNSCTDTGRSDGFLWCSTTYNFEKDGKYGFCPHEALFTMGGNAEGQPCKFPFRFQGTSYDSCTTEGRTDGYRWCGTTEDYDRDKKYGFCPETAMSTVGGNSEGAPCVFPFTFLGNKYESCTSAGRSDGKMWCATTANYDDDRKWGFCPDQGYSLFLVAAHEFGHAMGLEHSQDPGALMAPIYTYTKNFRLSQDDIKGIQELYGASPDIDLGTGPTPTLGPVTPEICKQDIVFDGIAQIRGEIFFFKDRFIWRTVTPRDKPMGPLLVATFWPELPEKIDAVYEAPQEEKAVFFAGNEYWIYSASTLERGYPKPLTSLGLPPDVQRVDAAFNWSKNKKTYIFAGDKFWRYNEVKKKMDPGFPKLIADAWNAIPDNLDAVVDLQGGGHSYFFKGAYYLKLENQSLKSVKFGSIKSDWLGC
The method, boiled down:
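IC50 was derived from the concentration-dependent fall in fluorescence (ex 328, em 415 nm) on Gly-Leu cleavage of 4 μM MCA/Dpa-quenched substrate I. Assays ran at room temperature in pH 7.5 Tris/NaCl/CaCl2/Brij buffer with MMP-2 activated by trypsin or APMA; inhibitors were diluted from 1% DMSO stocks.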

The target in another assay is T3, Human recombinant MMP-9 (Homo sapiens, UniProt P14780).
T3 construct: made in house; host or cells: MMP-9-transfected HT1080 cells (spent media)
T3 sequence (P14780 107-707 limits assumed): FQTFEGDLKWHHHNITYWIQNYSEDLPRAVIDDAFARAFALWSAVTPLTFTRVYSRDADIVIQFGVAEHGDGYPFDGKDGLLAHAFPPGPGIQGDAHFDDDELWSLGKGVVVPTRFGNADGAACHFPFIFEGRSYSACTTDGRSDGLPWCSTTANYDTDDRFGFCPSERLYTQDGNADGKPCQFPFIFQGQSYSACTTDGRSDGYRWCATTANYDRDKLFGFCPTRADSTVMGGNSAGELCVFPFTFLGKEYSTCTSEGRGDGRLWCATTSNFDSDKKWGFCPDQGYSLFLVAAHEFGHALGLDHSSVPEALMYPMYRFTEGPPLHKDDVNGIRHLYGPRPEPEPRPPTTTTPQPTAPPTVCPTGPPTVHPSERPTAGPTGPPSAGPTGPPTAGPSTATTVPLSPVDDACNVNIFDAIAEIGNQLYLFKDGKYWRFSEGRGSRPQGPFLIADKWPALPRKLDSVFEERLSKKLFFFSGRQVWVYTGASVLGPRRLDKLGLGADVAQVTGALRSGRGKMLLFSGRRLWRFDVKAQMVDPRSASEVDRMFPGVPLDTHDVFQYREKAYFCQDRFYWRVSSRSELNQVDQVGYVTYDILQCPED
The method, boiled down: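 Reduction in fluorescence (328 nm excitation, 415 nm emission) from cleavage of 4 μM quenched peptide substrate I, measured at room temperature against inhibitor concentration, gave IC50. Enzyme: trypsin- or APMA-activated MMP-9 purified from transfected HT1080 medium; buffer 100 mM Tris, 100 mM NaCl, 10 mM CaCl2, pH 7.5.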

In a further assay the target is T4, Human recombinant MMP-13 (Homo sapiens, UniProt P45452).
T4 construct: made in house; host or cells: baculovirus / insect cells
Put shortly: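 Fluorescence at 415 nm (excitation 328 nm) reports Gly-Leu cleavage of 4 μM quenched methoxycoumarin peptide substrate I. Human recombinant MMP-13, activated by trypsin or APMA, was incubated at room temperature with varied inhibitor concentrations in pH 7.5 Tris/NaCl/CaCl2 buffer; IC50 derived from reduced fluorescence.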

A further assay deals with T5, Human recombinant MMP-14 (Homo sapiens, UniProt P50281).
T5 construct: The catalytic domain enzyme was expressed in E. coli inclusion bodies, solubilized in urea; made in house
The method, boiled down:
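IC50 came from reduced fluorescence (ex 328 nm, em 415 nm) as inhibitor concentration rose, with 4 μM substrate I cleaved at Gly-Leu. Room-temperature incubation in pH 7.5 Tris buffer with 10 mM CaCl2; the E. coli-expressed, refolded MMP-14 catalytic domain was activated with trypsin or APMA.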

pIC50: −log10 of the molar value.

In general, pIC50 refers to −log10 of the IC50, conventionally taken in molar units. For the compound `O=C(NO)C1(S(=O)(=O)c2ccc(OCCCc3nc(-c4ccc5c(c4)OCO5)no3)cc2)CCOCC1` [Example 215], the pIC50 at Human recombinant MMP-1 is less than 5.00; on Human recombinant MMP-2 it was 7.69; on Human recombinant MMP-9 it was 6.11; on Human recombinant MMP-13, 9.52; at Human recombinant MMP-14, less than 5.00.

As for `COc1cc(OC)cc(-c2noc(CCCOc3ccc(S(=O)(=O)C4(C(=O)NO)CCOCC4)cc3)n2)c1` [Example 217], the pIC50 was less than 5.00 at Human recombinant MMP-1; 7.31 at Human recombinant MMP-2; 5.29 at Human recombinant MMP-9; 8.34 at Human recombinant MMP-13; less than 5.00 on Human recombinant MMP-14.

As to `Cc1ccc(-c2noc(CCCOc3ccc(S(=O)(=O)C4(C(=O)NO)CCOCC4)cc3)n2)c(F)c1` [Example 218], the pIC50 at Human recombinant MMP-1 was less than 5.00; at Human recombinant MMP-2, 7.39; at Human recombinant MMP-9, 5.53; at Human recombinant MMP-13, 8.85; on Human recombinant MMP-14, less than 5.00.

Consider `COc1ccccc1-c1nnc(CCCOc2ccc(S(=O)(=O)C3(C(=O)NO)CCOCC3)cc2)o1` [Example 220], for which the pIC50 on Human recombinant MMP-1 was less than 5.00; at Human recombinant MMP-2 it was 6.39; at Human recombinant MMP-9 it was 5.83; at Human recombinant MMP-13 it was 8.24; on Human recombinant MMP-14 it was less than 5.00.

As to `O=C1CN(c2ccccc2Cl)C(=O)N1CCCOc1ccc(S(=O)(=O)C2(C(=O)NO)CCOCC2)cc1` [Example 224], the pIC50 at Human recombinant MMP-1 is less than 5.00; at Human recombinant MMP-2, 6.71; on Human recombinant MMP-9, 5.83; at Human recombinant MMP-13 it was 8.33; at Human recombinant MMP-14 it was less than 5.00.

`Cc1ccccc1N1CC(=O)N(CCCOc2ccc(S(=O)(=O)C3(C(=O)NO)CCOCC3)cc2)C1=O` [Example 226]: the pIC50 was less than 5.00 on Human recombinant MMP-1; 6.65 at Human recombinant MMP-2; 5.67 on Human recombinant MMP-9; 8.37 at Human recombinant MMP-13; less than 5.00 on Human recombinant MMP-14.

Turning to `COCCN1CCC(C(=O)NO)(S(=O)(=O)c2ccc(OCCCNC(=O)c3ccc(OC(C)C)c(C)c3)cc2)CC1` [Example 230], the pIC50 at Human recombinant MMP-1 was less than 5.00; on Human recombinant MMP-2 it was 6.26; at Human recombinant MMP-9, 5.99; on Human recombinant MMP-13, 8.96; on Human recombinant MMP-14 it was less than 5.00.

As for `COc1ccc(C(=O)CCCc2ccc(S(=O)(=O)C3(C(=O)NO)CCOCC3)cc2)cc1` [Example 231], the pIC50 on Human recombinant MMP-1 is less than 5.00; at Human recombinant MMP-2 it was 8.80; on Human recombinant MMP-9 it was 7.99; at Human recombinant MMP-13, 9.70; on Human recombinant MMP-14, 6.19.

For the compound `O=C1CN(c2cccc(OC(F)(F)F)c2)C(=O)N1CCCOc1ccc(S(=O)(=O)C2(C(=O)NO)CCOCC2)cc1` [Example 232], the pIC50 on Human recombinant MMP-1 is less than 5.00; at Human recombinant MMP-2 it was 7.13; on Human recombinant MMP-9 it was 6.06; on Human recombinant MMP-13, 8.25; at Human recombinant MMP-14, less than 5.00.

As for `COc1ccc(-c2noc(CCCOc3ccc(S(=O)(=O)C4(C(=O)NO)CCOCC4)cc3)n2)cc1` [Example 237], the pIC50 was less than 5.00 at Human recombinant MMP-1; 7.37 at Human recombinant MMP-2; 5.95 on Human recombinant MMP-9; 9.15 on Human recombinant MMP-13; less than 5.00 on Human recombinant MMP-14.

With `Cc1cccc(-c2noc(CCCOc3ccc(S(=O)(=O)C4(C(=O)NO)CCOCC4)cc3)n2)c1` [Example 238], the pIC50 is less than 5.00 on Human recombinant MMP-1; 7.10 at Human recombinant MMP-2; 5.93 at Human recombinant MMP-9; 8.92 on Human recombinant MMP-13; less than 5.00 at Human recombinant MMP-14.

As to `O=C(NO)C1(S(=O)(=O)c2ccc(OCCCc3nc(-c4ccc(F)cc4)no3)cc2)CCOCC1` [Example 240], the pIC50 was less than 5.00 at Human recombinant MMP-1; 7.08 at Human recombinant MMP-2; 5.85 on Human recombinant MMP-9; 9.15 on Human recombinant MMP-13; less than 5.00 at Human recombinant MMP-14.

In the case of `O=C(NO)C1(S(=O)(=O)c2ccc(OCCCc3nc(-c4ccccc4)no3)cc2)CCOCC1` [Example 241], the pIC50 is less than 5.00 at Human recombinant MMP-1; 7.22 at Human recombinant MMP-2; 6.02 at Human recombinant MMP-9; 8.89 at Human recombinant MMP-13; less than 5.00 at Human recombinant MMP-14.

With `O=C(NO)C1(S(=O)(=O)c2ccc(OCCCc3nc(-c4ccc(Cl)cc4)no3)cc2)CCOCC1` [Example 243], the pIC50 on Human recombinant MMP-1 is 5.03; on Human recombinant MMP-2, 7.31; at Human recombinant MMP-9, 5.68; at Human recombinant MMP-13, 9.30; on Human recombinant MMP-14, less than 5.00.

On to `O=C(NO)C1(S(=O)(=O)c2ccc(OCCCc3nnc(Cl)o3)cc2)CCOCC1` [Example 244], for which the pIC50 at Human recombinant MMP-1 was 5.49; on Human recombinant MMP-2, 7.73; at Human recombinant MMP-9, 6.97; at Human recombinant MMP-13 it was 9.15; at Human recombinant MMP-14 it was less than 5.00.

Turning to `COCCN1CCC(C(=O)NO)(S(=O)(=O)c2ccc(OCCCCC(=O)c3ccc(OC)cc3)cc2)CC1` [Example 245], the pIC50 on Human recombinant MMP-1 is less than 5.00; at Human recombinant MMP-2 it was 8.07; at Human recombinant MMP-9, 7.21; at Human recombinant MMP-13, 9.70; on Human recombinant MMP-14, less than 5.00.

`CC(C)c1ccc(C(=O)NNC(=O)CCCOc2ccc(S(=O)(=O)C3(C(=O)NO)CCOCC3)cc2)cc1` [Example 246]: the pIC50 at Human recombinant MMP-1 is 5.93; on Human recombinant MMP-2, 8.12; at Human recombinant MMP-9 it was 6.98; on Human recombinant MMP-13, 8.52; at Human recombinant MMP-14, less than 5.00.

As to `CC(C)c1ccc(-c2nnc(CCCOc3ccc(S(=O)(=O)C4(C(=O)NO)CCOCC4)cc3)o2)cc1` [Example 247], the negative logarithm of the IC50 (pIC50) at Human recombinant MMP-1 is 5.44; on Human recombinant MMP-2, 6.35; at Human recombinant MMP-9 it was 6.47; at Human recombinant MMP-13, 8.96; at Human recombinant MMP-14, less than 5.00.

As to `COCCN1CCC(C(=O)NO)(S(=O)(=O)c2ccc(OCCCCC(=O)c3ccc(N(C)C)cc3)cc2)CC1` [Example 248], the pIC50 is less than 5.00 at Human recombinant MMP-1; 7.80 at Human recombinant MMP-2; 6.98 on Human recombinant MMP-9; 9.70 on Human recombinant MMP-13; 5.77 at Human recombinant MMP-14.

Turning to `COc1ccc(-c2nnn(CCCOc3ccc(S(=O)(=O)C4(C(=O)NO)CCOCC4)cc3)n2)cc1` [Example 252], the pIC50 on Human recombinant MMP-1 was 5.25; at Human recombinant MMP-2 it was 7.32; on Human recombinant MMP-9, 5.98; on Human recombinant MMP-13 it was 9.70; on Human recombinant MMP-14 it was less than 5.00.

`Cc1cc(C(=O)CCCCOc2ccc(S(=O)(=O)C3(C(=O)NO)CCN(C4CC4)CC3)cc2)ccc1OC(C)C` [Example 254]: the pIC50 was less than 5.00 at Human recombinant MMP-1; 6.86 on Human recombinant MMP-2; 6.01 on Human recombinant MMP-9; 8.77 at Human recombinant MMP-13; less than 5.00 on Human recombinant MMP-14.

`COc1ccc(CCCCc2ccc(S(=O)(=O)C3(C(=O)NO)CCOCC3)cc2)cc1` [Example 256]: the pIC50 at Human recombinant MMP-1 is less than 5.00; on Human recombinant MMP-2 it was 10.00; on Human recombinant MMP-9, 7.42; at Human recombinant MMP-13, more than 10.00; at Human recombinant MMP-14 it was less than 5.00.
